Assay results from US20260258084A1, “New Peptides as Selective IL-23 Receptor Antagonists” (Sanofi, priority 2022, published 2026).
In brackets after ≈: the same amount, converted by molar mass. Read-outs that look alike come from different tables or passages of the source. Starred links: 1 amine or outer side, 2 acyl side, 3 side chain; linkers in the order of their positions; H or OH if unused. Positions of bridges follow the written chain, without caps; N, C: chain ends. Non-standard residues stand in square brackets, D forms with d. Residues, ends and D or L forms follow the SMILES beside them. *: point of attachment. Phe(4-OMe) = COc1ccc(C[C@H](N[*:1])C(=O)[*:2])cc1; X6 = O=C(CCC(=O)[*:3])N[C@@H](CS[*:2])C(=O)[*:1]; X7 = O=C(CCC(=O)[*:3])N[C@@H](CC[*:2])C(=O)[*:1]; Trp(7-Me) = Cc1cccc2c(C[C@H](N)C(=O)O)c[nH]c12; αMeLys(Me2) = CN(C)CCCC[C@](C)(N)C(=O)O; 2Nal = N[C@@H](Cc1ccc2ccccc2c1)C(=O)O; d2Nal = N[C@H](Cc1ccc2ccccc2c1)C(=O)O; NMe5Ava = CN(CCCCC(=O)[*:2])[*:1]; Palmitoyl = CCCCCCCCCCCCCCCC(=O)*; 3Pal = N[C@@H](Cc1cccnc1)C(=O)O; αMeL = CC(C)C[C@](C)(N)C(=O)O; Suc = O=C(CCC(=O)[*:2])[*:1]; αMeK = C[C@](N)(CCCCN)C(=O)O; Thp = NC1(C(=O)O)CCOCC1; Me2NCH2CH2 = CN(C)CC*; Aib = CC(C)(N)C(=O)O; Ahx = NCCCCCC(=O)O; Ava = NCCCCC(=O)O; Sar = CNCC(=O)O

T1: IL-23 receptor on the surface of HEK-Blue IL-23 cells (UniProt Q5VWK5 24-629, limits assumed)
T1 sequence (looked up): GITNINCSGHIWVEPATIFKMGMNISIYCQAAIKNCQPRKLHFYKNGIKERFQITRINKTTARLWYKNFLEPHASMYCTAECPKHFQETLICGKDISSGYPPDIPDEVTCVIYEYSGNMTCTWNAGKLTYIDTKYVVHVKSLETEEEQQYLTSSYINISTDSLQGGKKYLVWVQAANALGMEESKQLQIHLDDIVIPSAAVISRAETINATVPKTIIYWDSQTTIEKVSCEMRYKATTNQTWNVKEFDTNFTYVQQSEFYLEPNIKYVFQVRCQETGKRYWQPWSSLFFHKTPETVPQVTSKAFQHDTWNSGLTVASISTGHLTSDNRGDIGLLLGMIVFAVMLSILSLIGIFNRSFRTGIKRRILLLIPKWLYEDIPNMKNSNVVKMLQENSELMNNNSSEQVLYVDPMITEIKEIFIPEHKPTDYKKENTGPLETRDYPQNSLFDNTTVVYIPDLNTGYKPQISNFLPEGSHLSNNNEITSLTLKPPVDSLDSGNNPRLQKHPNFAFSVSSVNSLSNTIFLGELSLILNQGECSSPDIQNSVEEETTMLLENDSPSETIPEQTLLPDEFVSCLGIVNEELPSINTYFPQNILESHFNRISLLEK


Key:
[1] = molecular target: T2, human interleukin-23 receptor (recombinant human IL-23R-Fc chimera) (Homo sapiens, UniProt Q5VWK5); assay: Human ELISA IL23/IL23R (assay for specific human IL23R antagonists); assay type: binding; details: Table 10; read-out: Human ELISA IL23/IL23R IC50
T2 construct: Fc (IgG Fc fusion)
Protocol: Antagonism of compounds for human interleukin-23 receptor antagonists, was determined by an ELISA assay.
A 384-well plate was coated with 50 μl/well of human IL23 at a final concentration of […] and incubated overnight at 4° C. The wells were washed 3 times with 80 μl wash buffer and blocked with 80 μl blocking buffer for 60 minutes at room temperature and washed again. 20 μl of serially diluted test peptides was added to each well and subsequently 20 μl of recombinant human IL-23R-Fc chimera at final concentration of 0.1 μg/ml. The plate was incubated for 60 minutes at room temperature. After the wells were washed, bound IL23R-Fc was detected with goat anti-hu-IgG1-HRP antibody. Signals were visualized with QuantaBlu Fluorogenic Peroxidase Substrate.

[2] = system: IL-23 induced STAT3 signaling in HEK-Blue™ IL-23 cells; assay: IL-23 induced STAT3 signaling in HEK-Blue IL-23 cells (SEAP reporter); assay type: cell-based; details: human IL23 0.25 ng/ml, read-out: pSTAT3
Source text: HEK-Blue™ IL-23 cells (Invivogen) are designed for the detection of bioactive human (hIL-23) and murine IL-23 (mIL-23) by monitoring the activation of the STAT3 pathway. Binding of IL-23 to its receptor on the surface of HEK-Blue™ IL-23 cells triggers a signalling cascade leading to the activation of STAT3 and the subsequent production of secreted embryonic alkaline phosphatase (SEAP). This can be readily assessed using QUANTI-Blue™ Solution, a SEAP detection reagent.
HEK-Blue™ IL-23 cells were cultured as described by Invivogen.
On the first day of assay 10 μL of the HEK-Blue IL23 cell suspension (final concentration: 10,000 cells/well) and 10 μl of serially diluted peptides solutions were dispensed into a 384-well assay plate. After pre-incubation of the reaction mixtures at 37° C./5% CO2/95% humidity for 60 minutes, 10 μl of the human IL23 cytokine (final concentration: 0.25 ng/ml) was added to each well for the STAT3 signalling activation. The plate was incubated overnight at 37° C./5% CO2/95% humidity.
On the second day 20 μl per well of Quanti-Blue detection solution (prepared according to the manufacture instruction) was dispensed into a new 384-well plate and followed by the transfer of 5 μl supernatant of the overnight incubated cell/sample mixtures. After incubation of 45 min at room temperature signals were measured with PHERAstar (BMG) at OD 620-655 nm. Dose response data were fitted with XLfit.

[3] = Chemical stability assessment of peptides (relative purity loss); assay type: physicochemical; details: 24 hours at 37° C.
Protocol: Purity of a peptide batch was determined through UPLC/MS (Methods B-G) prior to chemical stability measurement. The target concentration was 1 mg/ml pure compound. Solutions from solid samples were prepared in the following buffer systems with a concentration of 1 mg/ml compound based on the previously determined % purity: • Solubility buffer system A) 50 mM HCl pH 1.2+Acetonitrile (1:1) • Solubility buffer system B) 50 mM phosphate buffer pH 6.5+Acetonitrile (1:1) • Solubility buffer system C) 50 mM phosphate buffer pH 7.4+Acetonitrile (1:1)
Prepared solutions were stored for 24 hours at 2° C. and 37° C. After this time course, the samples were centrifuged for 15 min at 2500 RCF to create a 1:5 dilution of the supernatant. Then 2 μl of the dilution were analysed with UHPLC-UV.
The chemical stability was rated through the relative loss of purity calculated by the equation:
[(purity after 0 hours at 37° C.)−(purity after 24 hours at 37° C.)]/(purity after 0 hours at 37° C.)]*100%
The purity is calculated as [(peak area peptide)/(total peak area)]*100%.

[4] = Solubility testing of peptides at different pH; assay type: physicochemical; details: target concentration 1 mg/ml, 2 hours agitation
Protocol: Prior to the solubility measurement of a synthesized peptide batch, its purity was determined through UPLC/MS (methods B-G).
For solubility testing the target concentration was 1 mg pure compound/ml. Therefore, solutions from solid samples were prepared in a buffer system at a concentration of 1 mg/mL compound. The solid samples were obtained by drying down aliquots of a dimethyl sulfoxide stock solution using a Thermo Speedvac vacuum centrifuge. The dry down time was 3 hours. • Solubility buffer system A) 50 mM HCl pH 1.2 • Solubility buffer system B) 50 mM phosphate buffer pH 6.5 • Solubility buffer system C) 50 mM phosphate buffer pH 7.4 • Solubility buffer system D) 50 mM phosphate buffer pH 9.0
UPLC-UV (Method A) was performed after 2 hours of gentle agitation from the filtered (0.45 μm filter plates) solutions, which was obtained by 10 mins of centrifugation forced filtration at 1500 RCF (relative centrifugal acceleration).
The solubility was determined by the comparison of the UV peak area of 2 μL-injections of a buffered sample diluted 1:5 with a standard curve of a dimethyl sulfoxide reference sample of the diluted in dimethyl sulfoxide with known concentration. The different extinction coefficients were taken into account for the calculation.

[5] = molecular target: T1, IL-23 receptor on the surface of …; assay: cell-based or functional assay

| Molecule | IC50 [1] [nM] | IC50 [2] [nM] | further results |
| --- | --- | --- | --- |
| COc1ccc(C[C@@H]2NC(=O)[C@H]3NC(=O)[C@H](CCC(N)=O)NC(=O)[C@H](Cc4c[nH]c5ccccc45)NC(=O)CCCCNC(=O)[C@H](CCC(=O)O[C@@H]3C)NC(=O)CCCCCNC(=O)C[C@@H](C(=O)N[C@@H](CC(N)=O)C(=O)N[C@@H](CC(N)=O)C(N)=O)NC(=O)C(C)(C)NC(=O)[C@H](Cc3ccc4ccccc4c3)NC2=O)cc1 [compound 39] ([Ahx]E[Ava]WQTY(Me)[2Nal][Aib]DNN-NH2; ester 2-6; lactam N-10) | 1.1 | 26.4 | – |
| CC(C)C[C@]1(C)NC(=O)[C@H](Cc2ccc3ccccc3c2)NC(=O)[C@H](Cc2ccc(OCCN(C)C)cc2)NC(=O)[C@@H]2CSSC[C@H](NC(=O)CCCCN(C)C(=O)CC[C@@H](C(=O)N[C@@H](CC(N)=O)C(=O)N[C@@H](CC(N)=O)C(N)=O)NC1=O)C(=O)N[C@@H](CC(N)=O)C(=O)N[C@@H]([C@@H](C)O)C(=O)N[C@@H](Cc1c[nH]c3ccccc13)C(=O)N[C@@H](CCC(N)=O)C(=O)N2 [compound 42] ([NMe5Ava]CNTWQCY(Me2NCH2CH2)[2Nal][αMeL]ENN-NH2; disulfide 2-7; lactam N-11) | 0.32 | 1.42 | – |
| CCCCCCCCCCCCCCCC(=O)NCCCC[C@]1(C)NC(=O)[C@H](Cc2ccc3ccccc3c2)NC(=O)[C@H](Cc2ccc(OCCN(C)C)cc2)NC(=O)[C@@H]2CSSC[C@H](NC(=O)CCC(=O)NCCCC[C@@H](C(=O)N[C@@H](CC(N)=O)C(=O)N[C@@H](Cc3cccnc3)C(=O)N(C)CC(N)=O)NC1=O)C(=O)NCCCC[C@H](NC(C)=O)C(=O)N[C@@H](Cc1c[nH]c3c(C)cccc13)C(=O)N[C@@H](CCCCNC(C)=O)C(=O)N2 [compound 101] (Ac-K[Trp(7-Me)]K(Ac)CY(Me2NCH2CH2)[2Nal][αMeK](Palmitoyl)KN[3Pal][Sar]-NH2; linker 1-4-8 via X6) | 3.47 | – | Chemical stability (relative purity loss) Buffer pH 1.2 ([3]; 50 mM HCl pH 1.2 + acetonitrile (1:1)): 12.0%; Chemical stability (relative purity loss) Buffer pH 6.5 ([3]; 50 mM phosphate buffer pH 6.5 + acetonitrile (1:1)): 10.0%; Chemical stability (relative purity loss) Buffer pH 7.4 ([3]; 50 mM phosphate buffer pH 7.4 + acetonitrile (1:1)): 9.0%; solubility at 2 h ([4]; 50 mM HCl buffer, 50 mM HCl pH 1.2, read-out: Solubility Buffer pH 1.2): ≥ 1430 µg/mL; solubility at 2 h ([4]; 50 mM phosphate buffer pH 6.5, read-out: Solubility Buffer pH 6.5): 750 µg/mL (≈ 354 µM); solubility at 2 h ([4]; 50 mM phosphate buffer pH 7.4, read-out: Solubility Buffer pH 7.4): ≥ 870 µg/mL; solubility at 2 h ([4]; 50 mM phosphate buffer pH 9.0, read-out: Solubility Buffer pH 9.0): 810 µg/mL (≈ 382 µM) |
| CC(=O)NCCCC[C@@H]1NC(=O)[C@H](Cc2c[nH]c3c(C)cccc23)NC(=O)[C@@H](NC(C)=O)CCCCNC(=O)[C@@H]2CCSC[C@H](NC1=O)C(=O)N[C@@H](Cc1ccc(OCCN(C)C)cc1)C(=O)N[C@H](Cc1ccc3ccccc3c1)C(=O)NC1(CCOCC1)C(=O)N[C@H](C(=O)N[C@@H](CC(N)=O)C(=O)N[C@@H](Cc1cccnc1)C(=O)N(C)CC(N)=O)CCCCNC(=O)CCC(=O)N2 [compound 122] (Ac-K[Trp(7-Me)]K(Ac)CY(Me2NCH2CH2)[d2Nal][Thp]KN[3Pal][Sar]-NH2; linker 1-4-8 via X7) | 2.3 | 0.37 | – |
| Cc1cccc2c(C[C@@H]3NC(=O)[C@H]([C@@H](C)O)NC(=O)[C@H](CC(N)=O)NC(=O)[C@@H]4CSSC[C@H](NC(=O)[C@H](CC(C)C)NC3=O)C(=O)N[C@@H](Cc3ccc(OCCN(C)C)cc3)C(=O)N[C@@H](Cc3ccc5ccccc5c3)C(=O)N[C@@](C)(CCCCN(C)C)C(=O)N[C@H](C(=O)N[C@@H](CC(N)=O)C(=O)N[C@@H](Cc3cccnc3)C(N)=O)CCCCNC(=O)CCC(=O)N4)c[nH]c12 [compound 150] (CNT[Trp(7-Me)]LCY(Me2NCH2CH2)[2Nal][αMeLys(Me2)]KN[3Pal]-NH2; disulfide 1-6; linker N-10 via Suc) | 0.91 | 0.13 | – |
| Cc1cccc2c(C[C@@H]3NC(=O)[C@H]([C@@H](C)O)NC(=O)[C@H](CC(N)=O)NC(=O)[C@@H]4CSSC[C@H](NC(=O)[C@H](CCC(N)=O)NC3=O)C(=O)N[C@@H](Cc3ccc(OCCN(C)C)cc3)C(=O)N[C@@H](Cc3ccc5ccccc5c3)C(=O)N[C@@](C)(CCCCN(C)C)C(=O)N[C@H](C(=O)N[C@@H](CC(N)=O)C(=O)N[C@@H](Cc3cccnc3)C(=O)N(C)CC(N)=O)CCCCNC(=O)CCC(=O)N4)c[nH]c12 [compound 153] (CNT[Trp(7-Me)]QCY(Me2NCH2CH2)[2Nal][αMeLys(Me2)]KN[3Pal][Sar]-NH2; disulfide 1-6; linker N-10 via Suc) | 0.45 | 0.06 | – |
| [Ava]CNTWQC[Phe(4-OMe)][2Nal][Aib]ENN-NH2 (lactam N-11; disulfide 2-7; SMILES COc1ccc(C[C@@H]2NC(=O)[C@@H]3CSSC[C@H](NC(=O)CCCCNC(=O)CC[C@@H](C(=O)N[C@@H](CC(N)=O)C(=O)N[C@@H](CC(N)=O)C(N)=O)NC(=O)C(C)(C)NC(=O)[C@H](Cc4ccc5ccccc5c4)NC2=O)C(=O)N[C@@H](CC(N)=O)C(=O)N[C@@H]([C@@H](C)O)C(=O)N[C@@H](Cc2c[nH]c4ccccc24)C(=O)N[C@@H](CCC(N)=O)C(=O)N3)cc1) [Compound of SEQ ID NO: 1] | – | – | pSTAT3 (nM) [5]: 18.5 nM |
